These results are taken from patent publication US20240238426A1, “PROTEIN ACYLATION MODULATION BY HETEROBIFUNCTIONAL MOLECULES” (THE SCRIPPS RESEARCH INSTITUTE, priority 2021, published 2024).

SMILES strings stand for the structures.

Assay [1] concerns T1, FKBP12^F36V-RelA (Homo sapiens, F37V).
T1 construct: expressed in transfected cells
In words: Immunoblot analysis of FKBP12^F36V-RelA acetylation in RelA-/- HeLa cells. The format is cell-based. The protocol: (§1) Lentivirus Production and Transduction: Lentiviral production was performed using HEK293T cells, which were co-transfected with pMD2.G (Addgene, #12259), psPAX2 (Addgene, #12260), and AceTAG lentiviral plasmids using PEI (Polysciences Inc). Viral particles were collected 72 h after transfection and filtered through a […] membrane. A range of dilutions of the lentivirus in DMEM complete and 10 μg/mL polybrene were added to HeLa, H1299, or HeLa RelA KO cell lines. Transduced cells were selected with 1 μg/mL or 2 μg/mL puromycin.
(§2) Immunoblotting: Cells were harvested in cold DPBS by scraping and washed with cold DPBS twice. Cell pellets were resuspended in DPBS supplemented with 5 mM sodium butyrate, 20 mM Nicotinamide, and 1X Halt Protease Inhibitor Cocktail and lysed by sonication (15 ms on, 40 ms off, 15% amplitude, 1s total on x 3). Protein concentration was determined using DC Protein Assay (Bio-Rad) and absorbance read using a CLARIOstar plate reader following manufacturer's instructions. Samples with equal protein content were boiled in 4X SDS gel loading buffer for 10 min. Proteins were separated by 10%, 12.5%, or 15% SDS-polyacrylamide gel electrophoresis and transferred to PVDF membranes using Trans-Blot Turbo RTA Mini […] LF PVDF Transfer Kit (Bio-Rad). Membranes were incubated for 1 h at room temperature with blocking buffer, followed by incubating overnight at 4° C. with primary antibodies. After washing in TBST, the secondary antibodies were incubated with the membranes at room temperature for 1 h. The membranes were washed with TBST for three times and visualized on a Bio-Rad ChemiDoc MP Imaging System with Clarity Max Western ECL substrate (Bio-Rad) or SuperSignal West Femto Chemiluminescent substrate proprietary luminol and peroxide solution kit (Thermo Scientific Pierce).
For orientation: Immunoblotting shows a protein as a band on a membrane.

The target of assay [2] is T2, FKBP12^F36V and the bromodomain of p300 (BRD-p300) (Homo sapiens, UniProt P62942+Q09472, F37V).
T2 construct: A construct containing residues 2-108 of FKBP12^F36V in pGEX4t-1 vector; the BRD domain of p300 (BRD-p300); purchased) 31372; host or cells: E. coli BL21(DE3) (GST-FKBP12^F36V)
T2 sequence (P62942 2-108 F37V): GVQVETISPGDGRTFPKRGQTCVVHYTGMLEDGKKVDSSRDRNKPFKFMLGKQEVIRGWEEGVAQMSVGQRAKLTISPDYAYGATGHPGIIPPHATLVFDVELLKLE
T2 sequence (Q09472 1049-1156): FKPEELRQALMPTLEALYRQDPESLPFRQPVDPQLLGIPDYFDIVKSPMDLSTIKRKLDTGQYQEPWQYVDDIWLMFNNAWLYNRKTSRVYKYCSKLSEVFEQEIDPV
Nature of the assay: GST-FKBP12^F36V/His-P300-BRD AlphaScreen assay, ternary complex formation. To be noted: FIG. 3B. The format is binding. The protocol:
GST-FKBP12^F36V/His-P300-BRD AlphaScreen Assay: GST-FKBP12^F36V and 6xHis-p300-BRD (active motif #31372) were diluted to 250 nM and 500 nM, in assay buffer (50 mM HEPES pH 7.4, 200 mM NaCl, 1 mM TCEP, and 0.1% BSA), […] of protein mixture was added to each well of a 1/2 area 96-well OptiPlate (PerkinElmer). Compounds were then added from DMSO stock to protein mixture ([…]) with 1% DMSO in final mixture. Plates were then shaken orbitally at room temperature for 1 h. Nickel Chelate AlphaLISA Acceptor and Glutathione AlphaLISA Donor beads (PerkinElmer) diluted to 20 ng/ml in assay buffer and […] beads mixture was added to each well. After a 1 h orbital shaking at room temperature. luminescence was measured on the Envision 2104 plate reader (PerkinElmer). Data were plotted and analyzed using GraphPad PRISM v8 and fit with ‘Bell-shaped’ dose response curve.
(Alpha assays give light when donor and acceptor beads are brought close together.)

Assay [3] deals with T3, FKBP12^F36V-p53 (Homo sapiens, F37V).
T3 construct: expressed in transfected cells
T3 sequence (P62942 2-108 F37V limits assumed): as the sequence (P62942 2-108 F37V) above
T3 sequence (Q09472 2-2414 limits assumed, stated change not applied, further chain): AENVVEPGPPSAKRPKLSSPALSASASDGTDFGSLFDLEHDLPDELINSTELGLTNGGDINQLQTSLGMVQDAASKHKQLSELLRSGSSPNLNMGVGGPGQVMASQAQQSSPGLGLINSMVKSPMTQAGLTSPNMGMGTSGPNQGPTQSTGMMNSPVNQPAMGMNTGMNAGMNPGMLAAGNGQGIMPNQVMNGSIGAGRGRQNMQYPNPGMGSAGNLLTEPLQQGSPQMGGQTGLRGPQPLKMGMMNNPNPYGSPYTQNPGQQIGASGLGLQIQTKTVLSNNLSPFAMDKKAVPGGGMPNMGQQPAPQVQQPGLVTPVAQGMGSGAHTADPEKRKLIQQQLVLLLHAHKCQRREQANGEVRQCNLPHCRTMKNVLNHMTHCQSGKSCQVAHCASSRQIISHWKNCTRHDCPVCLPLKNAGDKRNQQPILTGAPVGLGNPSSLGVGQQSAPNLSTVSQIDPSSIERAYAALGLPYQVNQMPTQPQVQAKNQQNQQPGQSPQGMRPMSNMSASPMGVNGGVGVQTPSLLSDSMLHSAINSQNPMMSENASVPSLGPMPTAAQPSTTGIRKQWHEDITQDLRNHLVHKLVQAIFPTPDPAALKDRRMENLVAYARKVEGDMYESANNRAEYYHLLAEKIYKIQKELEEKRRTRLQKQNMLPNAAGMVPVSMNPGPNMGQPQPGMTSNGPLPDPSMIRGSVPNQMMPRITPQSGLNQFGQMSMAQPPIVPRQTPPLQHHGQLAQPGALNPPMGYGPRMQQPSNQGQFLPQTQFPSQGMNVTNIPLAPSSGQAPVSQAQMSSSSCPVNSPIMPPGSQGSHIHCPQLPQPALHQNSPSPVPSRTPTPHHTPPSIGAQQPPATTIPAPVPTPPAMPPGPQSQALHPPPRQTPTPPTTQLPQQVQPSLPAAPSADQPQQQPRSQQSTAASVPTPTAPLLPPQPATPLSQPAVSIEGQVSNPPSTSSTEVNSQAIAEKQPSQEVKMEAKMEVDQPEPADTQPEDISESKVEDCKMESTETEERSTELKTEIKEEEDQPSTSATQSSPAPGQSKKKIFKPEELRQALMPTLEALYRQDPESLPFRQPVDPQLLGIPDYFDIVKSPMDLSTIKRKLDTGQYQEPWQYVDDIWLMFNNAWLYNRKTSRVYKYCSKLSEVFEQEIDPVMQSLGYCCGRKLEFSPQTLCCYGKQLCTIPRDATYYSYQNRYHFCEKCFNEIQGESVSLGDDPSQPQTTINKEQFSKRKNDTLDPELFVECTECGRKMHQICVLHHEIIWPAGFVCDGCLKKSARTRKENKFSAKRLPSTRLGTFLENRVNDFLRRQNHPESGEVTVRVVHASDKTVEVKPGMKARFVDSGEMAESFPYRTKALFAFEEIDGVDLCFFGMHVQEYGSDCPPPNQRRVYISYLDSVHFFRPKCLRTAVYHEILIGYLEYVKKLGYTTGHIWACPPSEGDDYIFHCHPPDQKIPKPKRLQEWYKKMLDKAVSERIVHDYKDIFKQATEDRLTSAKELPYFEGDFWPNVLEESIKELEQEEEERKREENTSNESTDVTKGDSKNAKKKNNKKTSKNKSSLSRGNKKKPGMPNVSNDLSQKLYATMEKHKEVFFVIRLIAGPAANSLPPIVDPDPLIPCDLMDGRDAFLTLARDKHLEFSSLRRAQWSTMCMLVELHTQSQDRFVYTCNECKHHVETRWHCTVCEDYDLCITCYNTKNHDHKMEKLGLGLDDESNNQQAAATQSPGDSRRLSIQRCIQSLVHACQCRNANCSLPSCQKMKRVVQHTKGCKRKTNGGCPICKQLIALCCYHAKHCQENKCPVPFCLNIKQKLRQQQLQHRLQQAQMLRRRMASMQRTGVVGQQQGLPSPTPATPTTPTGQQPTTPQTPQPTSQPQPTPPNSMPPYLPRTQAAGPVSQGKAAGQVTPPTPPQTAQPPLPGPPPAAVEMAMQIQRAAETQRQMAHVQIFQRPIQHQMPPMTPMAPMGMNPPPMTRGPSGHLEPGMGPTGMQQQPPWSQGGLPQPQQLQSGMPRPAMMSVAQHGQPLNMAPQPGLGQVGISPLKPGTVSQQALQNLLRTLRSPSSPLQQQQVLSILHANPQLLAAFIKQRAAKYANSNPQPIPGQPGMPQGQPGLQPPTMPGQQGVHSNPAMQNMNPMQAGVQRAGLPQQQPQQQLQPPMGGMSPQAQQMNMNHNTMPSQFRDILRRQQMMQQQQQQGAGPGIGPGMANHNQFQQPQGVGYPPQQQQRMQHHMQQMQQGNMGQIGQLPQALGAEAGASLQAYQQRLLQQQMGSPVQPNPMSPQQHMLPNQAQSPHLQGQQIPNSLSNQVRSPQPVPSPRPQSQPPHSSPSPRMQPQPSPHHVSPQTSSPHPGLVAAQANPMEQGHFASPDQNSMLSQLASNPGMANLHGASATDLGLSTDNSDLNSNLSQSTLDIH
In words: Immunoblot analysis of FKBP12^F36V-p53 acetylation in H1299 cells. The format is cell-based. How it is done: as §1, §2

The test system of assay [4] is p21 (CDKNIA), PUMA, MDM2, and GLS2. In words: Immunoblot of p53 target gene expression in FKBP12^F36V-p53 H1299 cells. The class given is cell-based, Human. How it is done: as §2

T1 sequence (P62942 2-108 F37V limits assumed): as the sequence (P62942 2-108 F37V) above
T1 sequence (Q09472 2-2414 limits assumed, stated change not applied, further chain): as the sequence (Q09472 2-2414 limits assumed, stated change not applied, further chain) above

For the compound `CC[C@H](C(=O)N1CCCC[C@H]1C(=O)O[C@H](CCc1ccc(OC)c(OC)c1)c1cccc(OCC(=O)NCCOCCOCCC(=O)NCCOc2ccc(CCc3nc4cc(-c5c(C)noc5C)ccc4n3CCN3CCOCC3)cc2)c1)c1cc(OC)c(OC)c(OC)c1` [AceTAG-1, (R)-3-(3,4-dimethoxyphenyl)-1-(3-((15-(4-(2-(5-(3,5-dimethylisoxazol-4-yl)-1-(2-morpholinoethyl)-1H-benzo[d]imidazol-2-yl)ethyl)phenoxy)-2,12-dioxo-6,9-dioxa-3,13-diazapentadecyl)oxy)phenyl)propyl (S)-1-((S)-2-(3,4,5-trimethoxyphenyl)butanoyl)piperidine-2-carboxylate], the “RelA acetylation at higher AceTAG-1 concentrations” value in assay [1] (FIG. 6A) is on record as “apparent acetylation autoinhibition”. The “RelA acetylation at neighboring K314/315” value in assay [1] (FIG. 9D) is reported as “minimal effects”. The “RelA acetylation at K310” value in assay [1] (indicated doses, 2 hr, FIG. 6A) is listed as “dose-dependent acetylation”. For the same compound, the “concentration of maximum complex formation” value in assay [2] (FKBP12^F36V and BRD-p300, AlphaScreen) was roughly 1 µM. For the same compound, the “AceTAG-mediated ternary complex formation (AlphaScreen curve)” value in assay [2] (bell-shaped dose response fit) is on record as “increased potence relative to other analogues”. In addition, the “p53 acetylation at higher AceTAG-1 concentrations” value in assay [3] (FIG. 6C) is on record as “apparent acetylation autoinhibition”. Also, the “treatment time after which a significant level of p53 acetylation is detectable” value in assay [3] (FIG. 9E) is roughly 10 min. For the same compound, in assay [3] (indicated doses, 2 hr, FIG. 6C), the “p53 acetylation at K305, K373, and K382” value was “strong AceTAG-1-dependent acetylation”. Moreover, the “p21 expression level at higher concentration” value in assay [4] (FIGS. 7A and 7B) was “reflected the ‘hook effect’”. For the same compound, the p21 expression entry in assay [4] (indicated doses, 8 hr and 24 hr exposure, FIGS. 7A and 7B) is on record as “strong dose-dependent expression”. For the same compound, in assay [4] (indicated doses, FIG. 7A), the “expression of PUMA, MDM2, and GLS2” value was “insignificant effects”.
